Earlier results on nine compounds are cited in patent EP4516295A1, “PH-INDUCIBLE STRUCTURE-SWITCHING LIPID NANOVECTORS, SEMI-SYNTHETIC EXTRACELLULAR VESICLES, METHODS OF MAKING SAME AND USES THEREOF” (ETH Zurich, priority 2023, dated 2025).

For this data set the following is noted: apparent acid dissociation constant prior to incorporation in LNVs.

Turning to `CCCCCCCCC(CCCCCC)C(=O)OCCCCCCN(CCCCO)CCCCCCOC(=O)C(CCCCCC)CCCCCCCC` (stereo not drawn) [ALC-0315], the pKa is 6.09. Take `CCCC/C=C\C/C=C\CCCCCCCCCC1(CCCCCCCC/C=C\C/C=C\CCCCC)OCC(CN(C)C)O1` [D-Lin-K-DMA, N,N-dimethyl-1-(2-((10Z,13Z)-octadeca-10,13-dien-1-yl)-2-((9Z,12Z)-octadeca-9,12-dien-1-yl)-1,3-dioxolan-4 yl)methanamine]: the pKa is 5.9. In the case of `CCCCC/C=C\C/C=C\CCCCCCCCOCC(CN(C)C)OCCCCCCCC/C=C\C/C=C\CCCCC` (stereo not drawn) [DLin-DMA, 1,2-dilinoleyloxy-N,N-dimethyl-3-aminopropane], the pKa was 6.8. On to `CCCC/C=C\C/C=C\CCCCCCCCCC1(CCCCCCCC/C=C\C/C=C\CCCCC)OCC(CCN(C)C)O1` (stereo not drawn) [DLin-KC2-DMA, N,N-dimethyl-2-(2-((10Z,13Z)-octadeca-10,13-dien-1-yl)-2-((9Z,12Z)-octadeca-9,12-dien-1-yl)-1,3-dioxolan-4-yl)ethan-1-amine], for which the pKa is given as 6.68. As to `CCCC/C=C\C/C=C\CCCCCCCCCC1(CCCCCCCC/C=C\C/C=C\CCCCC)OCC(CCCN(C)C)O1` (stereo not drawn) [DLin-KC3-DMA, N,N-dimethyl-3-(2-((10Z,13Z)-octadeca-10,13-dien-1-yl)-2-((9Z,12Z)-octadeca-9,12-dien-1-yl)-1,3-dioxolan-4-yl)propan-1-amine], the pKa is on record as 7.2. For `CCCC/C=C\C/C=C\CCCCCCCCCC1(CCCCCCCC/C=C\C/C=C\CCCCC)OCC(CCCCN(C)C)O1` (stereo not drawn) [DLin-KC4-DMA, N,N-dimethyl-4-(2-((10Z,13Z)-octadeca-10,13-dien-1-yl)-2-((9Z,12Z)-octadeca-9,12-dien-1-yl)-1,3-dioxolan-4-yl)butan-1-amine], the pKa is recorded as 7.3.

For `CCCCC/C=C\C/C=C\CCCCCCCCC(CCCCCCCC/C=C\C/C=C\CCCCC)OC(=O)CCCN(C)C` [DLin-MC3-DMA, 4-(dimethylamino)-butanoic acid, (10Z,13Z)-1-(9Z,12Z)-9,12-octadecadien-1-yl-10,13-nonadecadien-1-yl ester], the pKa was 6.44.

In the case of `CCCCCC/C=C\COC(=O)CCCCCCCC(CCCCCCCC(=O)OC/C=C\CCCCCC)OC(=O)CCCN(C)C` [L319], the pKa is 6.38. Turning to `CCCCCCCCCCCOC(=O)CCCCCN(CCO)CCCCCCCC(=O)OC(CCCCCCCC)CCCCCCCC` [SM-102], the pKa was 6.68.

By pKa is commonly meant the pH at which an ionisable group is half protonated.
